This is an account of results in article PMC9945734 (BMC Medicine, 2023).

This assay concerns PC-3-KQ cells. Put plainly: 3D spheroid invasion assay and screening of FDA-approved drugs. In kind it is cell-based, human. The note with it: compared to vehicle control; for activity at 0.01 µM / activity at 0.1 µM / activity at 1 µM / activity at 10 µM: Homo sapiens, 72 h, read-out: Invasion rates (%) of each drug’s multiple concentrations. The method, then: The invasion assay was performed as previously described. […] The plates were then centrifuged at 320 g for 4 min to cluster cells in the bottom of wells and incubated for 3 days. On the fourth day, 40 μL medium was removed from each well, 40 μL of the matrigel-medium mixture was added to each well, and cells were cultured for another 3 days. […] At the end of the incubation, images were taken using a phase contrast microscope (Eclipse Ti2, Nikon, Tokyo, Japan) with 10× object lenses, and the total area of cells and the core sphere area of cells (Fig. 1a) were measured using the Image J software. The invading area was calculated using the following formula: invasion area = total area of cells – core sphere area.
For drug screening, drugs were added to the matrigel-medium mixture when replacing the culture medium on day 4. For the initial round of screening, a final concentration of 10 μM was used for all drugs. Multiple drug concentrations were used for the second round of screening, including 0, 0.001, 0.01, 0.1, 1, and 10 μM. Duplicate wells were repeated for each concentration.

[1] abbreviates: 0.01 μM (first column so headed), secondary screening of 87 hit compounds (Table S1).
The mark [2] stands for this setting: 0.01 μM (first column so headed), third screening of 25 hit compounds (Table S2).
Setting [3] is: 0.01 μM (second column so headed), secondary screening of 87 hit compounds (Table S1).
Setting [4] is: 0.01 μM (second column so headed), third screening of 25 hit compounds (Table S2).
Where [5] appears, read: 0.1 μM, secondary screening of 87 hit compounds (Table S1).
[6] abbreviates: 0.1 μM, third screening of 25 hit compounds (Table S2).
Where [7] appears, read: 1 μM, secondary screening of 87 hit compounds (Table S1).
[8] abbreviates: 1 μM, third screening of 25 hit compounds (Table S2).
Where [9] appears, read: 10 μM, secondary screening of 87 hit compounds (Table S1).
[10] abbreviates: 10 μM, third screening of 25 hit compounds (Table S2).

Where two headings read alike, the source gives them in different places.

With `COc1cc2ncnc(Nc3ccc(F)c(Cl)c3)c2cc1NC(=O)/C=C/CN1CCCCC1` [Dacomitinib], the activity at 0.01 µM came out at 78.1% under setting [1], 98.9% under setting [2], 77.8% under setting [3] and 102% under setting [4]. The activity at 0.1 µM under setting [5] stood at 73.1% and the activity at 0.1 µM under setting [6] was 98.6%. For the same compound, the activity at 1 µM by setting is: under setting [7], 44.7%; under setting [8], 90.7%. In addition, the activity at 10 µM was 5.75% under setting [9] and 53.9% under setting [10].
For `CN1C[C@@H]2C[C@H]1CN2c1cc2c(cc1F)c(=O)c(C(=O)O)cn2C1CC1.CS(=O)(=O)O` [Danofloxacin (mesylate)], the “Invasion rates (%) of each drug’s multiple concentrations (μM)” value (shortened to “Invasion rates (%)”) by setting is: under setting [1], 94.09%; under setting [2], 93.23%; under setting [3], 90.56%; under setting [4], 98.11%; under setting [5], 86.22%; under setting [6], 87.17%. In addition, the “Invasion rates (%)” value by setting is: under setting [7], 14.57%; under setting [8], 77.40%; under setting [9], 3.38%; under setting [10], 2.06%.
As to `O.O.O.O.O.O.O.O=C1N=C([O-])CN1/N=C/c1ccc(-c2ccc([N+](=O)[O-])cc2)o1.O=C1N=C([O-])CN1/N=C/c1ccc(-c2ccc([N+](=O)[O-])cc2)o1.[Na+].[Na+]` [Dantrolene (sodium hemiheptahydrate)], the “Invasion rates (%)” value is, setting by setting: under setting [1], 102.88%; under setting [3], 101.64%; under setting [5], 90.54%; under setting [7], 82.27%; under setting [9], 29.15%.
Take `Cc1nc(Nc2ncc(C(=O)Nc3c(C)cccc3Cl)s2)cc(N2CCN(CCO)CC2)n1.Cl` [Dasatinib (hydrochloride)]: the “Invasion rates (%)” value is on record as 54.32% under setting [1]; 99.47% under setting [2]; 60.68% under setting [3]; 101.09% under setting [4]; 53.75% under setting [5]; 92.00% under setting [6]. The “Invasion rates (%)” value is on record as 49.82% under setting [7], 87.73% under setting [8], 38.63% under setting [9] and 56.83% under setting [10].
`Cc1nc(Nc2ncc(C(=O)Nc3c(C)cccc3Cl)s2)cc(N2CCN(CCO)CC2)n1` [Dasatinib]: the activity at 0.01 µM amounted to 46.2% under setting [1], 95.1% under setting [2], 49.7% under setting [3] and 97.7% under setting [4]. The activity at 0.1 µM reads like this: under setting [5], 37.7%; under setting [6], 83.4%. Besides, the activity at 1 µM reads like this: under setting [7], 37.1%; under setting [8], 71.7%. The activity at 10 µM is, setting by setting: under setting [9], 15.1%; under setting [10], 0.9%.
As for `COc1cccc2c1C(=O)c1c(O)c3c(c(O)c1C2=O)C[C@@](O)(C(C)=O)C[C@@H]3O[C@H]1C[C@H](N)[C@H](O)[C@H](C)O1.Cl` [Daunorubicin (Hydrochloride)], the “Invasion rates (%)” value is listed as 95.45% under setting [1]; 98.71% under setting [3]; 93.45% under setting [5]; 64.89% under setting [7]; 2.25% under setting [9].
Regarding `CNC[C@H](O)[C@@H](O)[C@H](O)[C@H](O)CO.Nc1nc(-n2cc(C(=O)O)c(=O)c3cc(F)c(N4CC(O)C4)c(Cl)c32)c(F)cc1F` [Delafloxacin (meglumine)], the “Invasion rates (%)” value is, setting by setting: under setting [1], 85.63%; under setting [2], 93.02%; under setting [3], 84.75%; under setting [4], 86.37%; under setting [5], 73.78%; under setting [6], 82.73%. Besides, the “Invasion rates (%)” value by setting is: under setting [7], 2.08%; under setting [8], 1.96%; under setting [9], 1.54%; under setting [10], 0.81%.
On to `CN(C)[C@@H]1C(=O)C(C(N)=O)=C(O)[C@@]2(O)C(=O)C3=C(O)c4c(O)ccc(Cl)c4[C@@H](O)[C@H]3C[C@@H]12.Cl` [Demeclocycline (hydrochloride)], for which the “Invasion rates (%)” value was 92.92% under setting [1]; 93.85% under setting [2]; 97.24% under setting [3]; 95.74% under setting [4]; 81.08% under setting [5]; 89.49% under setting [6]. Moreover, the “Invasion rates (%)” value is 41.75% under setting [7], 2.65% under setting [8], 4.21% under setting [9] and 0.30% under setting [10].
Consider `Cc1ncc([N+](=O)[O-])n1C[C@@H](CN1CCOCC1)OP(=O)(O)O` [Dextrorotation nimorazole phosphate ester], for which the “Invasion rates (%)” value reads like this: under setting [1], 97.64%; under setting [3], 99.79%; under setting [5], 97.40%; under setting [7], 85.31%; under setting [9], 35.28%.
`Cc1ncc([N+](=O)[O-])n1C` [Dimetridazole]: the activity at 0.01 µM turned out to be 95.7% under setting [1] and 97.8% under setting [3]. Further, the activity at 0.1 µM under setting [5] was found to be 88.8%. The activity at 1 µM under setting [7] was found to be 71%. Moreover, the activity at 10 µM under setting [9] stood at 3.61%.
For `CCCCCCCCCCCC[N+](C)(C)CCOc1ccccc1.[Br-]` [Domiphen (bromide)], the “Invasion rates (%)” value under setting [1] is 89.87%; the “Invasion rates (%)” value under setting [3] was determined as 94.08%; the “Invasion rates (%)” value under setting [5] stood at 85.67%; the “Invasion rates (%)” value under setting [7] was determined as 77.63%; the “Invasion rates (%)” value under setting [9] was determined as 66.00%.
As for `COc1cccc2c1C(=O)c1c(O)c3c(c(O)c1C2=O)C[C@@](O)(C(=O)CO)C[C@@H]3O[C@H]1C[C@H](N)[C@H](O)[C@H](C)O1.Cl` [Doxorubicin (hydrochloride)], the “Invasion rates (%)” value under setting [1] was 93.34%, the “Invasion rates (%)” value under setting [3] is recorded as 92.49%, the “Invasion rates (%)” value under setting [5] amounted to 89.01% and the “Invasion rates (%)” value under setting [9] is reported as 1.92%.
